Measured values from patent US4873236A, “Condensed diazepinones, processes for preparing them and pharmaceutical compositions containing these compounds” (Dr. Karl Thomae GmbH, priority 1986, dated 1989).
Read-outs that look alike come from different tables or passages of the source. One block for each compound: values may come before it.

Key:
Solubility in water = conditions: in words
[1] = target: T1, muscarinic receptors of the atrium (Cavia porcellus, UniProt H0VRN8); assay: Dissociation constants (KB) on spontaneously beating right atrium, methacholine antagonism; set-up: species or system guinea pig
T1 construct: In the isolated, spontaneously beating right atrium; from tissue; host or cells: isolated right atrium of guinea pig
T1 sequence (H0VRN8 1-466): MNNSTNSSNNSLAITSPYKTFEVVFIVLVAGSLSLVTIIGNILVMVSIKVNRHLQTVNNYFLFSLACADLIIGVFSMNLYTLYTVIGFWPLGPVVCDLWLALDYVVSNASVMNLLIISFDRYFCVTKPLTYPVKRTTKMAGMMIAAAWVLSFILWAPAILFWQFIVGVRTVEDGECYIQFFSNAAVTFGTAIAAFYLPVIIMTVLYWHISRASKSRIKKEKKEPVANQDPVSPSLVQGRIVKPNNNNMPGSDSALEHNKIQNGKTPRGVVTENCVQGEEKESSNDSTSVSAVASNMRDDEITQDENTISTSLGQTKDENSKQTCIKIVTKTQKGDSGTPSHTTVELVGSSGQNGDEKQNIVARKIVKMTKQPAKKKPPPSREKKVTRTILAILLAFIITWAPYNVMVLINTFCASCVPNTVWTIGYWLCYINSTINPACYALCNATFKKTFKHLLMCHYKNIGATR
Procedure: Dissociation constants (KB values) were determined in vitro on the guinea pig ileum and spontaneously beating atrium. The ileum was removed and incubated in Krebs-Henseleit solution in an organ bath. Contractions were produced by means of increasing concentrations of methacholine (M) so that a full concentration-activity curve could be plotted. Then M was washed out, the test substance was added and kept in contact for 30 minutes and again a concentration-activity curve was plotted with M. The dissociation constant was calculated according to Arunlakshana and Schild (Brit. J. Pharmacol. 14, 48, 1959) from the dosage ratio (DR), i.e. the extent of displacement of the concentration-activity curve.
In the isolated, spontaneously beating right atrium M reduced the heart rate as a function of the concentration. This effect was stopped by the addition of an antimuscarinic. Dissociation constants for the muscarinic receptors of the atrium were obtained in the same way as described above. A comparison of the dissociation constants measured in the two different tissues made it possible to identify cardioselective substances.

[2] = target: T2, M1 (rise in blood pressure by McN-A-343) (Rattus norvegicus, UniProt P08482); assay: M1/M2 selectivity in the rat: inhibition of McN-A-343 blood pressure increase (M1); type: in vivo, male THOM rats; conditions: iv, 5 min
T2 construct: from tissue
T2 sequence (P08482 1-460): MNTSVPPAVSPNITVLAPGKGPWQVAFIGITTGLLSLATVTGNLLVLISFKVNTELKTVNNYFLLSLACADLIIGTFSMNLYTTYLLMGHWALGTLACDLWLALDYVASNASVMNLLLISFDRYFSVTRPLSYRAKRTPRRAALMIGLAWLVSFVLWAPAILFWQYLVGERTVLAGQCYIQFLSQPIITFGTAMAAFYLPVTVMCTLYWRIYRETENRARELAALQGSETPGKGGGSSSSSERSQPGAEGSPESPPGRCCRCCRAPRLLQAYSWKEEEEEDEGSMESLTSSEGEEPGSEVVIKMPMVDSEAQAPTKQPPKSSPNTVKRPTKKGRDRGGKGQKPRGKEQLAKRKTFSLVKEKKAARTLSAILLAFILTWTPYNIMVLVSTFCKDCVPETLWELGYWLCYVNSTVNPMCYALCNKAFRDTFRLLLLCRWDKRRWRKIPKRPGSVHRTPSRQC

[3] = target: T3, muscarinic receptors, submandibular gland (Rattus norvegicus, UniProt P08483); assay: Receptor bonding test in vitro, submandibular gland (displacement of 3H-N-methylscopolamine); type: binding, Sprague-Dawley rats; conditions: 0.3 nmolar 3H-NMS, 30° C., 45 min
T3 construct: After removal of the heart and submandibular gland; from tissue; host or cells: submandibular gland of male Sprague-Dawley rats, homogenate

M2 (vagal bradycardia) = target: T4, M2 (vagal bradycardia) (Rattus norvegicus, UniProt P10980); assay: M1/M2 selectivity in the rat: inhibition of vagally stimulated bradycardia (M2); type: in vivo, male THOM rats; conditions: iv, 5 min, read-out: M2 activity (rat) ED50
T4 construct: The bradycardia produced by vagus stimulation; from tissue; host or cells: whole animal (male THOM rats), heart
T4 sequence (P10980 1-466): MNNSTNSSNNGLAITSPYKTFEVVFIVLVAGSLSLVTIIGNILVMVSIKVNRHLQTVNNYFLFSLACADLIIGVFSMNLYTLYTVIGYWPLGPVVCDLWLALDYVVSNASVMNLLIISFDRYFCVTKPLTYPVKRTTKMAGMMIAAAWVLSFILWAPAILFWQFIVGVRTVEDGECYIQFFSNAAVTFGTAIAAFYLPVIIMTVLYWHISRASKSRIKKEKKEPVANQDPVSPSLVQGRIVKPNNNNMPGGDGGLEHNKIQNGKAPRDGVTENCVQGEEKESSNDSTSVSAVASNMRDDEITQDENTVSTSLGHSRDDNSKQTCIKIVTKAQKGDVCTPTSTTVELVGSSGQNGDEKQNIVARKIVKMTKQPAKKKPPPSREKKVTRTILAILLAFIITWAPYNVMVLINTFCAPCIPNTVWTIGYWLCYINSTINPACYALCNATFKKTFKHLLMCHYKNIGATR
Procedure: The method used was described by Hammer and Giachetti (Life Sciences 31, 2991-2998 (1982)). 5 minutes after intravenous injection of increasing doses of the substance, either the right vagus was electrically stimulated (frequency: 25 Hz; pulse width: 2 ms; duration of stimulus: 30 s; number of volts: supramaximal) or 0.3 mg/kg of McN-A-343 was injected intravenously into male THOM rats. The bradycardia produced by vagus stimulation and the increase in blood pressure produced by McN-A-343 were measured.

[4] = target: T5, muscarinic receptors, heart (Rattus norvegicus, UniProt P10980); assay: Receptor bonding test in vitro, heart (displacement of 3H-N-methylscopolamine); type: binding, Sprague-Dawley rats; conditions: 0.3 nmolar 3H-NMS, 30° C., 45 min, heart
T5 construct: After removal of the heart and submandibular gland; from tissue; host or cells: whole heart of male Sprague-Dawley rats, homogenate
T5 sequence (P10980 1-466): T4 sequence (P10980 1-466)

[5] = target: T6, muscarinic receptors, lachrymal glands (Rattus norvegicus, UniProt P08483); assay: Receptor bonding test in vivo, lachrymal glands (3H-NMS); set-up: species or system female rats; conditions: iv, 0.5 h, read-out: ID50 Lachrymal glands
T6 construct: from tissue; host or cells: lachrymal glands of female rats, labelled in vivo
Procedure: (§1) For these experiments, female rats with a body weight of about 200 g were used. Before the start of the test the animals were anaesthetised with a dosage of 1.25 g/kg of urethane. The animals were each given the prescribed dosage of test substance by intravenous injection. After 15 minutes, 113 ng/kg of ^3 H-N-methylscopolamine (^3 H-NMS) were administered by the same route. After another 15 minutes the animals were killed and the heart, bronchi and lachrymal glands were removed. These organs were dissolved in Soluene R and the radioactivity was determined. The measurements were assumed to be total bonding. […] ID50 values were determined for the individual organs using these tests.

salivation = assay: Salivation-inhibiting effect on the rat (pilocarpine); type: in vivo, male THOM rats; conditions: Rattus norvegicus, iv, read-out: Salivation inhibition (rat) ED50
Procedure: The secretion of saliva was triggered by subcutaneous administration of 2 mg/kg of pilocarpine. The saliva was soaked up with blotting paper and the area occupied by the saliva was determined by planimetry every 5 minutes. The dosage of substance which reduced the volume of saliva by 50% was determined graphically.

[6] = target: T7, muscarinic receptors, heart atrium (Rattus norvegicus, UniProt P10980); assay: Receptor bonding test in vivo, heart atrium (3H-NMS); set-up: species or system female rats; conditions: rat, iv, 0.5 h, read-out: ID50 Heart Atrium
T7 construct: from tissue; host or cells: heart (atrium, ventricle) of female rats, labelled in vivo
T7 sequence (P10980 1-466): T4 sequence (P10980 1-466)
Procedure: as §1

[7] = test system: muscarinic receptors, bronchi; assay: Receptor bonding test in vivo, bronchi (3H-NMS); set-up: species or system female rats; conditions: in vivo binding, i.v., rat, 113 ng/kg 3H-NMS; 30 min
Procedure: as §1

[8] = target: T8, muscarinic receptors, heart ventricle (Rattus norvegicus, UniProt P10980); assay: Receptor bonding test in vivo, heart ventricle (3H-NMS); set-up: species or system female rats; conditions: iv, 0.5 h, read-out: ID50 Heart Ventricle
T8 construct: the heart, bronchi and lachrymal glands were removed; from tissue; host or cells: heart (atrium, ventricle) of female rats, labelled in vivo
T8 sequence (P10980 1-466): T4 sequence (P10980 1-466)
Procedure: as §1

T6 sequence (P08483 whole entry): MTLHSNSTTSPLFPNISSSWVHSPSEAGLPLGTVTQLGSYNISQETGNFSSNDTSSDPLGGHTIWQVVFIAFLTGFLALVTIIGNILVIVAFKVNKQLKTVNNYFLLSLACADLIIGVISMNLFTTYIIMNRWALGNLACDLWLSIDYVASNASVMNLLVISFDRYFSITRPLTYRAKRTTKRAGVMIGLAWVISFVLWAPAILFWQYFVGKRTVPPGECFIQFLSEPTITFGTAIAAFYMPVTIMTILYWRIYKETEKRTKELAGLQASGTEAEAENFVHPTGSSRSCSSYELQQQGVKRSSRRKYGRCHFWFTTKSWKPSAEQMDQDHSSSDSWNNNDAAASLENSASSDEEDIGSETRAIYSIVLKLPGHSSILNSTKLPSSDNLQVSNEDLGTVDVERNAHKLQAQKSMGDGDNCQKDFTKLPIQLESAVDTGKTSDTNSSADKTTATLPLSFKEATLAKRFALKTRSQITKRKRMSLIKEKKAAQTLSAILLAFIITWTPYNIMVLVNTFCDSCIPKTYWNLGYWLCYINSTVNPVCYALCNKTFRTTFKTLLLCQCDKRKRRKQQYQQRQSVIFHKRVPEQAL
T3 sequence (P08483 whole entry): as above

solubility in water (Solubility in water): soluble in water
Structure (SMILES): CN(C)CC1CCCCN1CCCCNC(=O)N1c2ccccc2C(=O)Nc2cccnc21 (racemic) [Example 20, D,L-5,11-Dihydro-11-[[[4-[2-[(dimethylamino)methyl]-piperidin-1-yl]butyl]amino]carbonyl]-6H-pyrido[2,3-b][1,4]benzodiazepin-6-one]

solubility in water (Solubility in water): Soluble in water
Structure (SMILES): CCN(CC)CC1CCCCN1CCCNC(=O)N1c2ccccc2NC(=O)c2ccccc21 (stereo not drawn) [Example 8, 5-[[[3-[2-[(Diethylamino)methyl]-piperidin-1-yl]propyl]amino]carbonyl]-5,10-dihydro-11H-dibenzo[b,e][1,4]diazepin-11-one]

Structure (SMILES): Cl.O=C1Nc2cccnc2N(C(=O)NCCN2CCCCC2CN2CCCCC2)c2ccccc21 (stereo not drawn) [Example 39, 5,11-Dihydro-11-[[[2-[2-[(piperidin-1-yl)methyl]-piperidin-1-yl]ethyl]amino]carbonyl]-6H-pyrido[2,3-b][1,4]benzodiazepin-6-one hydrochloride]
solubility in water (Solubility in water): soluble in water

Structure (SMILES): CCN(CC)CC1CCCCN1CC(=O)N1c2ccccc2C(=O)Nc2cccnc21 (stereo not drawn) [Substance X, 11-[[2-[(diethylamino)methyl]-piperidin-1-yl]acetyl]-5,11-dihydro-6H-pyrido[2,3-b][1,4]benzodiazepin-6-one, reference compound]
Kb ([1]; guinea pig spontaneously beating atrium, methacholine, 30 min contact, read-out: KB Heart (dissociation constant)): 0.105 µM | ED50 ([2]; i.v., 50% reduction in blood pressure rise by 0.3 mg/kg McN-A-343, read-out: M1 activity (rat) ED50): 0.988 mg/kg | IC50 [3]: 5 µM | ED50 (M2 (vagal bradycardia); i.v., 50% reduction in vagal bradycardia): 0.16 mg/kg | IC50 [4]: 0.15 µM | ED50 [5]: > 30 mg/kg

Structure (SMILES): CN1CCN(CC(=O)N2c3ccccc3C(=O)Nc3cccnc32)CC1 [Substance Y, 5,11-dihydro-11-[(4-methyl-piperazin-1-yl)acetyl]-6H-pyrido[2,3-b][1,4]benzodiazepin-6-one, reference compound]
Kb [1]: 0.24 µM | ED50 (salivation): 0.084 mg/kg

Structure (SMILES): CN1C2CCC1CC(OC(=O)C(CO)c1ccccc1)C2 (stereo not drawn) [Substance Z, atropine, reference compound]
Kb [1]: 0.00141 µM | ED50 ([2]; read-out: M1 activity (rat) ED50): 0.016 mg/kg | ED50 [6]: 0.08 mg/kg | ID50 Bronchi [7]: 0.1 mg/kg | ED50 (M2 (vagal bradycardia)): 0.004 mg/kg | ED50 [8]: 0.03 mg/kg | ED50 [5]: 0.2 mg/kg
